From PubChem BioAssay AID1918998 (Molecular Pharmacology Branch, DTP, NCI, 2023) come the findings set out here.

pIC50: −log10 of the molar value. Values joined by “and” are separate entries in the source; they are usually repeats but may differ in a detail not shown here. Equal entries are not always repeated. Some results are limits rather than exact numbers.

This experiment concerns 521955-158-R2-J5-PDC complex spheroid growth. Description: Anticancer human tumor 521955-158-R2-J5-PDC patient-derived pancreatic carcinoma cell line growth inhibition [AhR]. The settings on record: for viability, T/C: stronger effect = lower value. The procedure, abridged: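 Agents were dosed in half-log steps down from roughly clinical Cmax, or from 10 microM where Cmax was unknown, alone and with AhR antagonists. Read-out: percent test/control growth of tumor spheroids containing HUVEC and MSC stromal cells.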

Setting [1] is: curve of first compound, second compound 0.1 µM.
Where [2] appears, read: curve of first compound, second compound 0.316 µM.
Where [3] appears, read: curve of first compound, second compound 1 µM.
Where [4] appears, read: curve of first compound, second compound 3.16 µM.
[5] abbreviates: curve of first compound, second compound 10 µM.
The mark [6] stands for this setting: second compound 0.1 µM, first compound 0.00316 µM.
Where [7] appears, read: second compound 0.1 µM, first compound 0.01 µM.
Setting [8] is: second compound 0.1 µM, first compound 0.0316 µM.
[9] abbreviates: second compound 0.1 µM, first compound 0.1 µM.
Where [10] appears, read: second compound 0.1 µM, first compound 0.316 µM.
Setting [11] is: second compound 0.1 µM, first compound 1 µM.
[12] abbreviates: second compound 0.316 µM, first compound 0.00316 µM.
[13] abbreviates: second compound 0.316 µM, first compound 0.01 µM.
Setting [14] is: second compound 0.316 µM, first compound 0.0316 µM.
The mark [15] stands for this setting: second compound 0.316 µM, first compound 0.1 µM.
[16] abbreviates: second compound 0.316 µM, first compound 0.316 µM.
The mark [17] stands for this setting: second compound 0.316 µM, first compound 1 µM.
Setting [18] is: second compound 1 µM, first compound 0.00316 µM.
Where [19] appears, read: second compound 1 µM, first compound 0.01 µM.
[20] abbreviates: second compound 1 µM, first compound 0.0316 µM.
Where [21] appears, read: second compound 1 µM, first compound 0.1 µM.
Setting [22] is: second compound 1 µM, first compound 0.316 µM.
The mark [23] stands for this setting: second compound 1 µM, first compound 1 µM.
Where [24] appears, read: second compound 3.16 µM, first compound 0.00316 µM.
The mark [25] stands for this setting: second compound 3.16 µM, first compound 0.01 µM.
Setting [26] is: second compound 3.16 µM, first compound 0.0316 µM.
Where [27] appears, read: second compound 3.16 µM, first compound 0.1 µM.
The mark [28] stands for this setting: second compound 3.16 µM, first compound 0.316 µM.
[29] abbreviates: second compound 3.16 µM, first compound 1 µM.
[30] abbreviates: second compound 10 µM, first compound 0.00316 µM.
Where [31] appears, read: second compound 10 µM, first compound 0.01 µM.
[32] abbreviates: second compound 10 µM, first compound 0.0316 µM.
The mark [33] stands for this setting: second compound 10 µM, first compound 0.1 µM.
Where [34] appears, read: second compound 10 µM, first compound 0.316 µM.
[35] abbreviates: second compound 10 µM, first compound 1 µM.
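Throughout, for viability, T/C: spheroids mix tumor cells with HUVEC endothelium and human MSC stroma; luminescence taken as viability surrogate after a week of drug exposure.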

For orientation: pIC50 means −log10 of the IC50, conventionally taken in molar units. As a reminder, the viability, T/C is the ratio of treated to control. `Nc1ncn(C2CC(O)C(CO)O2)c(=O)n1` (stereo unspecified) + Cc1cncc(-c2nc(NCCc3c[nH]c4ccccc34)c3ncn(C(C)C)c3n2)c1: the pIC50 under setting [1] is 6.03; the pIC50 under setting [2] was < 6.00; the pIC50 under setting [3] is < 6.00; the pIC50 under setting [4] is < 6.00; the pIC50 under setting [5] was < 6.00. For the same compound, the viability, T/C by setting is: under setting [6], 92.4%; under setting [7], 84.2%; under setting [8], 101%; under setting [9], 95.4%; under setting [10], 79.6%; under setting [11], 48.2%. For the same compound, the viability, T/C was 102% under setting [12]; 99% under setting [13]; 96.4% under setting [14]; 82.7% under setting [15]; 63.9% under setting [16]; 55.7% under setting [17]. Also, the viability, T/C was 112% under setting [18]; 117% under setting [19]; 121% under setting [20]; 93.9% under setting [21]; 82.3% under setting [22]; 57.5% under setting [23]. In addition, the viability, T/C reads like this: under setting [24], 148%; under setting [25], 123%; under setting [26], 145%; under setting [27], 119%; under setting [28], 115%; under setting [29], 79.8%. Moreover, the viability, T/C under setting [30] was 141%; the viability, T/C under setting [31] is 110%; the viability, T/C under setting [32] was 152%; the viability, T/C under setting [33] was 124%; the viability, T/C under setting [34] is 135%; the viability, T/C under setting [35] is 76.1%.

In the case of `CCc1c2c(nc3ccc(O)cc13)-c1cc3c(c(=O)n1C2)COC(=O)[C@]3(O)CC` + CC(CO)NC(=O)c1cc(-c2ccc(Cl)cc2)nn(-c2cnn(C)c2)c1=O, the pIC50 reads like this: under setting [1], 8.65; under setting [2], > 9.02; under setting [3], 8.92; under setting [4], > 9.02; under setting [5], > 9.02. Besides, the viability, T/C (second compound 0.1 µM, first compound 0.000949 µM) is 57.4%; the viability, T/C (second compound 0.1 µM, first compound 0.003 µM) was 47.5%; the viability, T/C (second compound 0.1 µM, first compound 0.00949 µM) was 15.7%; the viability, T/C (second compound 0.1 µM, first compound 0.03 µM) is 9.8%; the viability, T/C (second compound 0.1 µM, first compound 0.0949 µM) was 8.28%; the viability, T/C (second compound 0.1 µM, first compound 0.3 µM) is 5.09%. Besides, the viability, T/C is 49.1% (second compound 0.316 µM, first compound 0.000949 µM); 36.5% (second compound 0.316 µM, first compound 0.003 µM); 13.5% (second compound 0.316 µM, first compound 0.00949 µM); 9.73% (second compound 0.316 µM, first compound 0.03 µM); 8.11% (second compound 0.316 µM, first compound 0.0949 µM); 5.79% (second compound 0.316 µM, first compound 0.3 µM). Moreover, the viability, T/C was 55.3% (second compound 1 µM, first compound 0.000949 µM); 30% (second compound 1 µM, first compound 0.003 µM); 16.4% (second compound 1 µM, first compound 0.00949 µM); 7.85% (second compound 1 µM, first compound 0.03 µM); 9.01% (second compound 1 µM, first compound 0.0949 µM); 4.72% (second compound 1 µM, first compound 0.3 µM). The viability, T/C reads like this: (second compound 3.16 µM, first compound 0.000949 µM) 35.5%; (second compound 3.16 µM, first compound 0.003 µM) 29.3%; (second compound 3.16 µM, first compound 0.00949 µM) 16.7%; (second compound 3.16 µM, first compound 0.03 µM) 12.7%; (second compound 3.16 µM, first compound 0.0949 µM) 9.72%; (second compound 3.16 µM, first compound 0.3 µM) 9.82%. The viability, T/C is, setting by setting: (second compound 10 µM, first compound 0.000949 µM) 27.3%; (second compound 10 µM, first compound 0.003 µM) 23.6%; (second compound 10 µM, first compound 0.00949 µM) 14.9%; (second compound 10 µM, first compound 0.03 µM) 8.31%; (second compound 10 µM, first compound 0.0949 µM) 7.42%; (second compound 10 µM, first compound 0.3 µM) 6.21%.

In the case of `CC1COCCN1c1cc(C2(S(C)(=N)=O)CC2)nc(-c2ccnc3[nH]ccc23)n1` (stereo unspecified), the viability, T/C (compound 0.0316 µM) was 100% and 91.6% and 125%; the viability, T/C (compound 0.1 µM) is 108% and 93.5% and 106%; the viability, T/C (compound 0.316 µM) is 107% and 85.8% and 101%; the viability, T/C (compound 1 µM) was 114% and 85.9% and 106%; the viability, T/C (compound 3.16 µM) is 34.1% and 30.7% and 22.6%; the viability, T/C (compound 10 µM) is 18.6% and 15.7% and 17.3%. The pIC50 (curve of compound) was 5.61 and 5.68 and 5.67.

For `CC[C@@]1(O)C(=O)OCc2c1cc1n(c2=O)Cc2cc3c(CN(C)C)c(O)ccc3nc2-1`, the viability, T/C is, setting by setting: (compound 0.000316 µM) 93.2% and 80.6% and 77.3%; (compound 0.001 µM) 90.4% and 95% and 67.7%; (compound 0.00316 µM) 80.1% and 84.2% and 84.3%; (compound 0.01 µM) 86.6% and 65.1% and 63.1%; (compound 0.0316 µM) 62.3% and 43.2% and 34.2%; (compound 0.1 µM) 33.1% and 22.1% and 23.6%. Also, the pIC50 (curve of compound) is 7.28 and 7.66 and 7.77.

Take `CCN(c1cc(-c2ccc(CN3CCOCC3)cc2)cc(C(=O)NCc2c(C)cc(C)[nH]c2=O)c1C)C1CCOCC1`: the viability, T/C (compound 0.00949 µM) was 104% and 116% and 106%; the viability, T/C (compound 0.03 µM) was 111% (2×) and 113%; the viability, T/C (compound 0.0949 µM) is 93.7% and 98.9% and 87%; the viability, T/C (compound 0.3 µM) was 97.9% and 94.6% and 81.7%; the viability, T/C (compound 0.949 µM) was 99.9% and 70.8% and 81.8%; the viability, T/C (compound 3 µM) was 96.3% and 84.7% and 88%. The pIC50 (curve of compound) is < 5.52.

`Nc1ncn(C2CC(O)C(CO)O2)c(=O)n1` (stereo unspecified) + CC(CO)NC(=O)c1cc(-c2ccc(Cl)cc2)nn(-c2cnn(C)c2)c1=O: the pIC50 reads like this: under setting [1], 6.21; under setting [2], 6.19; under setting [3], < 6.00; under setting [4], 6.10; under setting [5], < 6.00. In addition, the viability, T/C was 113% under setting [6]; 105% under setting [7]; 106% under setting [8]; 70.9% under setting [9]; 67.9% under setting [10]; 40.1% under setting [11]. Further, the viability, T/C by setting is: under setting [12], 97.2%; under setting [13], 107%; under setting [14], 107%; under setting [15], 70.8%; under setting [16], 68.1%; under setting [17], 41.2%. Besides, the viability, T/C runs as follows: under setting [18], 111%; under setting [19], 85.7%; under setting [20], 120%; under setting [21], 78.6%; under setting [22], 67.8%; under setting [23], 50.8%. Besides, the viability, T/C reads like this: under setting [24], 98.2%; under setting [25], 95.2%; under setting [26], 87.3%; under setting [27], 87.1%; under setting [28], 64.7%; under setting [29], 46.4%. Moreover, the viability, T/C under setting [30] was 83.3%; the viability, T/C under setting [31] was 87%; the viability, T/C under setting [32] is 74.1%; the viability, T/C under setting [33] is 80.2%; the viability, T/C under setting [34] is 62.4%; the viability, T/C under setting [35] was 51%.
